# Laboratory results as given in patent publication US20250154173A1 (Merck Sharp & Dohme LLC, priority 2023, published 2025).
# Target: T1, GST-RIPK1 (recombinant GST-RIPK1 kinase domain (residues 1-327)) (Homo sapiens, UniProt Q13546)
# T1 construct: recombinant GST-RIPK1 kinase domain (residues 1-327) enzyme produced from baculovirus-transfected Sf21 cells; host or cells: baculovirus-transfected Sf21 insect cells
# T1 sequence (Q13546 1-327): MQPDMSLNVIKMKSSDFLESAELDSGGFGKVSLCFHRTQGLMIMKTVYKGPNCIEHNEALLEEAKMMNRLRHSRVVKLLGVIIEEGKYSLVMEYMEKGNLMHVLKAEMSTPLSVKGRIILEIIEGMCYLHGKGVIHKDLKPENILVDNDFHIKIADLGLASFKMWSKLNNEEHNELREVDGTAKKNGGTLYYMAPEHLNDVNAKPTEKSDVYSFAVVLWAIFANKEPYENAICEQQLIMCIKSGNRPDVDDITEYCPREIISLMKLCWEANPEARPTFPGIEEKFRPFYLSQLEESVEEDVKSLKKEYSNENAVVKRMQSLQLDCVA
# Assay: RIPK1-ADP-Glo Enzymatic Assay
# Assay type: biochemical
# Conditions: ten-point titration, top compound concentration of 100000 nM; 25 nM GST-RIPK1, 300 μM ATP, 3 μM dephosphorylated-MBP; 30 min pre-incubation, 150 min reaction
# Summary of the method: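 GST-RIPK1 kinase domain (residues 1-327, Sf21-expressed), 25 nM, preincubated 30 min with compound, then reacted 150 min with 300 μM ATP and 3 μM dephosphorylated MBP in pH 7.3 Hepes buffer, 1% DMSO. ADP measured by ADP-Glo luminescence; EC50 from ten-point titration (top 100000 nM), four-parameter fit.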
row,EC50 [nM],Molecule
1,18,N#Cc1cc(F)cc(OC2CC3(C2)O[C@@H]2CC[C@@H](c4cnccn4)N2C3=O)c1 (stereo partly drawn) [Example 19.16]
2,155,"O=C1N2[C@@H](CC[C@H]2c2ccccc2)OC12CC(Oc1cncc(C(F)(F)F)c1)C2 (stereo partly drawn) [Example 8.8, (5′S,7a′R)-5′-phenyl-3-{[5-(trifluoromethyl)pyridin-3-yl]oxy}tetrahydro-3′H-spiro[cyclobutane-1,2′-pyrrolo[2,1-b][1,3]oxazol]-3′-one]"
3,19,"O=C1N2[C@@H](CC[C@H]2c2cc(F)cc(F)c2)OC12CC(Oc1ccc(F)cn1)C2 (stereo partly drawn) [Example 9.37, (5′S,7a′R)-5′-(3,5-difluorophenyl)-3-[(5-fluoropyridin-2-yl)oxy]tetrahydro-3′H-spiro[cyclobutane-1,2′-pyrrolo[2,1-b][1,3]oxazol]-3′-one]"
4,255,"O=C1N2[C@H](O[C@]13C[C@@H](OCc1ccccc1)C3)[C@@H](O)C[C@H]2c1cnccn1 [Example 21.1, (1s,3S,5′S,7′S,7a′R)-3-(benzyloxy)-7′-hydroxy-5′-(pyrazin-2-yl)tetrahydro-3′H-spiro[cyclobutane-1,2′-pyrrolo[2,1-b]oxazol]-3′-one]"
5,174,"N#CC1(c2ccc(COC3CC4(C3)OC3CC[C@@H](c5cnccn5)N3C4=O)cn2)CCC1 (stereo partly drawn) [Example 18.28, 1-[5-({[(5′S)-3′-oxo-5′-(pyrazin-2-yl)tetrahydro-3′H-spiro[cyclobutane-1,2′-pyrrolo[2,1-b][1,3]oxazol]-3-yl]oxy}methyl)pyridin-2-yl]cyclobutane-1-carbonitrile]"
6,9,"O=C1N2[C@@H](CC[C@H]2c2cc(F)cc(F)c2)O[C@]12C[C@H](Oc1ncnc3sccc13)C2 [Example 9.30, (1r,3R,5′S,7a′R)-5′-(3,5-difluorophenyl)-3-[(thieno[2,3-d]pyrimidin-4-yl)oxy]tetrahydro-3′H-spiro[cyclobutane-1,2′-pyrrolo[2,1-b][1,3]oxazol]-3′-one]"
7,182,"O=C1N2C(CC[C@H]2c2cnccn2)OC12CC(OCc1cccc3nccn13)C2 (stereo partly drawn) [Example 18.84, (5′S)-3-[(imidazo[1,2-a]pyridin-5-yl)methoxy]-5′-(pyrazin-2-yl)tetrahydro-3′H-spiro[cyclobutane-1,2′-pyrrolo[2,1-b][1,3]oxazol]-3′-one]"
8,239,"CC(OC1CC2(C1)O[C@@H]1CC[C@@H](c3cc(F)cc(F)c3)N1C2=O)c1ncccc1F (single isomer, unassigned) [Example 12.3, (1R or S,3R or S,5′S,7a′R)-5′-(3,5-difluorophenyl)-3-((R or S)-1-(3-fluoropyridin-2-yl)ethoxy)tetrahydro-3′H-spiro[cyclobutane-1,2′-pyrrolo[2,1-b]oxazol]-3′-one]"
9,21,"O=C1N2[C@@H](CC[C@H]2c2cnccn2)OC12CC(Oc1cnccn1)C2 (stereo partly drawn) [Example 9.66, (5′S,7a′R)-5′-(pyrazin-2-yl)-3-[(pyrazin-2-yl)oxy]tetrahydro-3′H-spiro[cyclobutane-1,2′-pyrrolo[2,1-b][1,3]oxazol]-3′-one]"
10,86,"N#Cc1cc(OC2CC3(C2)O[C@@H]2CC[C@@H](c4cc(F)cc(F)c4)N2C3=O)ncc1F (single isomer, unassigned) [Example 17.1, 2-((((Is or r),3S,5′S,7a′R)-5′-(3,5-difluorophenyl)-3′-oxotetrahydro-3′H-spiro[cyclobutane-1,2′-pyrrolo[2,1-b]oxazol]-3-yl)oxy)-5-fluoroisonicotinonitrile]"
11,397,"Cn1ccc([C@@H]2CC[C@H]3OC4(CC(Oc5cncc(Cl)c5)C4)C(=O)N32)n1 (stereo partly drawn) [Example 19.9, (5′S,7a′R)-3-[(5-chloropyridin-3-yl)oxy]-5′-(1-methyl-1H-pyrazol-3-yl)tetrahydro-3′H-spiro[cyclobutane-1,2′-pyrrolo[2,1-b][1,3]oxazol]-3′-one]"
12,12,"O=C1N2[C@@H](CC[C@H]2c2cc(F)cc(F)c2)O[C@]12C[C@H](Oc1cc(-n3cccn3)ncn1)C2 [Example 9.6, (5′S,7a′R)-5′-(3,5-difluorophenyl)-3-{[6-(1H-pyrazol-1-yl)pyrimidin-4-yl]oxy}tetrahydro-3′H-spiro[cyclobutane-1,2′-pyrrolo[2,1-b][1,3]oxazol]-3′-one]"
13,31,"O=C1N2[C@@H](CC[C@H]2c2cnccn2)O[C@]12C[C@@H](Oc1cccnc1)C2 [Example 19.1, (5′S,7a′R)-5′-(pyrazin-2-yl)-3-(pyridin-3-yloxy)tetrahydro-3′H-spiro[cyclobutane-1,2′-pyrrolo[2,1-b]oxazol]-3′-one]"
14,159,"N#Cc1ccncc1COC1CC2(C1)OC1CC[C@@H](c3cnccn3)N1C2=O (stereo partly drawn) [Example 18.45, 3-({[(5′S)-3′-oxo-5′-(pyrazin-2-yl)tetrahydro-3′H-spiro[cyclobutane-1,2′-pyrrolo[2,1-b][1,3]oxazol]-3-yl]oxy}methyl)pyridine-4-carbonitrile]"
15,12,"O=C1N2[C@@H](CC[C@H]2c2ccc(F)cc2)O[C@]12C[C@H](Oc1ncnn3cccc13)C2 [Example 9.27, (1r,3R,5′S,7a′R)-5′-(4-fluorophenyl)-3-[(pyrrolo[2,1-f][1,2,4]triazin-4-yl)oxy]tetrahydro-3′H-spiro[cyclobutane-1,2′-pyrrolo[2,1-b][1,3]oxazol]-3′-one]"
16,233,"O=C1N2[C@@H](CC[C@H]2c2cnccn2)O[C@]12C[C@@H](Oc1ncnn3cccc13)C2 [Example 9.45, (1s,3S,5′S,7a′R)-5′-(pyrazin-2-yl)-3-(pyrrolo[2,1-f][1,2,4]triazin-4-yloxy)tetrahydro-3′H-spiro[cyclobutane-1,2′-pyrrolo[2,1-b]oxazol]-3′-one]"
17,168,"O=C1N2C(CC[C@H]2c2cnccn2)OC12CC(OCc1cccc(Cn3ccnn3)c1)C2 (stereo partly drawn) [Example 18.76, (5′S)-5′-(pyrazin-2-yl)-3-({3-[(1H-1,2,3-triazol-1-yl)methyl]phenyl}methoxy)tetrahydro-3′H-spiro[cyclobutane-1,2′-pyrrolo[2,1-b][1,3]oxazol]-3′-one]"
18,122,"O=C1N2C(CC[C@H]2c2cnccn2)OC12CC(OCc1nnc(Cc3ccccc3)s1)C2 (stereo partly drawn) [Example 18.64, (5′S)-3-[(5-benzyl-1,3,4-thiadiazol-2-yl)methoxy]-5′-(pyrazin-2-yl)tetrahydro-3′H-spiro[cyclobutane-1,2′-pyrrolo[2,1-b][1,3]oxazol]-3′-one]"
19,66,"CCc1nnc(-c2ccc(COC3CC4(C3)OC3CC[C@@H](c5cnccn5)N3C4=O)cc2)o1 (stereo partly drawn) [Example 18.105, (5′S)-3-{[4-(5-ethyl-1,3,4-oxadiazol-2-yl)phenyl]methoxy}-5′-(pyrazin-2-yl)tetrahydro-3′H-spiro[cyclobutane-1,2′-pyrrolo[2,1-b][1,3]oxazol]-3′-one]"
20,54,"4-{[(1r,3R,5′S,7a′R)-3′-oxo-5′- phenyltetrahydro-3′H- spiro[cyclobutane-1,2′-pyrrolo[2,1- b][1,3]oxazol]-3-yl]oxy}pyrimidine- 2-carbonitrile [Example 9.18]"
21,74,"O=C1N2C(CC[C@H]2c2cnccn2)OC12CC(OCc1ccc3nc(C4CC4)cn3c1)C2 (stereo partly drawn) [Example 18.22, (5′S)-3-[(2-cyclopropylimidazo[1,2-a]pyridin-6-yl)methoxy]-5′-(pyrazin-2-yl)tetrahydro-3′H-spiro[cyclobutane-1,2′-pyrrolo[2,1-b][1,3]oxazol]-3′-one]"
22,27,"N#Cc1ccc(COC2CC3(C2)O[C@@H]2CC[C@@H](c4cnccn4)N2C3=O)cc1 (single isomer, unassigned) [Example 22.2, 4-((((5′S,7a′R)-3′-oxo-5′-(pyrazin-2-yl)tetrahydro-3′H-spiro[cyclobutane-1,2′-pyrrolo[2,1-b]oxazol]-3-yl)oxy)methyl)benzonitrile]"
23,105,"O=C1N2[C@@H](CC[C@H]2c2cc(F)cc(F)c2)OC12CC(Oc1ccnc3c(F)cnn13)C2 (single isomer, unassigned) [Example 9.4]"
24,577,"O=C1N2[C@@H](CC[C@H]2c2cnccn2)OC12CC(OCC1CCC1)C2 (single isomer, unassigned) [Example 23.2, (5′S,7a′R)-3-(cyclobutylmethoxy)-5′-(pyrazin-2-yl)tetrahydro-3′H-spiro[cyclobutane-1,2′-pyrrolo[2,1-b]oxazol]-3′-one]"
25,20,"O=C1N2[C@@H](CC[C@H]2c2cnccn2)O[C@]12C[C@H](Oc1ccc(F)cc1F)C2 [Example 7.1, (1r,3R,5′S,7a′R)-3-(2,4-difluorophenoxy)-5′-(pyrazin-2-yl)tetrahydro-3′H-spiro[cyclobutane-1,2′-pyrrolo[2,1-b]oxazol]-3′-one]"
26,65,"COCCOc1ccc(COC2CC3(C2)OC2CC[C@@H](c4cnccn4)N2C3=O)cc1 (stereo partly drawn) [Example 18.50, (5′S)-3-{[4-(2-methoxyethoxy)phenyl]methoxy}-5′-(pyrazin-2-yl)tetrahydro-3′H-spiro[cyclobutane-1,2′-pyrrolo[2,1-b][1,3]oxazol]-3′-one]"

row,Molecule,EC50 [nM]
1,"COc1ccc2cc(COC3CC4(C3)OC3CC[C@@H](c5cnccn5)N3C4=O)ncc2n1 (stereo partly drawn) [Example 18.81, (5′S)-3-[(2-methoxy-1,7-naphthyridin-6-yl)methoxy]-5′-(pyrazin-2-yl)tetrahydro-3′H-spiro[cyclobutane-1,2′-pyrrolo[2,1-b][1,3]oxazol]-3′-one]",756
